Laboratory results: US10654837B2, “Sulphamoylaryl derivatives and use thereof as medicaments for the treatment of liver fibrosis” (Janssen Pharmaceutica NV, priority 2017, dated 2020)
pIC50: −log10 of the molar value.

Target: T1, 5HTR2B (Homo sapiens, UniProt P41595)
T1 construct: host or cells: human Maverick/293 cells
Test: 5HTR2B antagonist activity, calcium mobilization assay in human Maverick/293 cells (serotonin as agonist)
Format: cell-based
Details: intracellular calcium, emission 525 nm, read-out: Ca assay IC50
Method in brief: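 Calcium mobilization read over 80 s at ex 485/em 525 nm after serotonin addition. Before that, 2 h serum-free starvation, 50 min dye loading at 37 °C, and 15-30 min antagonist exposure. IC50 from sigmoidal fit of peak % inhibition.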

T1 sequence (P41595 whole entry): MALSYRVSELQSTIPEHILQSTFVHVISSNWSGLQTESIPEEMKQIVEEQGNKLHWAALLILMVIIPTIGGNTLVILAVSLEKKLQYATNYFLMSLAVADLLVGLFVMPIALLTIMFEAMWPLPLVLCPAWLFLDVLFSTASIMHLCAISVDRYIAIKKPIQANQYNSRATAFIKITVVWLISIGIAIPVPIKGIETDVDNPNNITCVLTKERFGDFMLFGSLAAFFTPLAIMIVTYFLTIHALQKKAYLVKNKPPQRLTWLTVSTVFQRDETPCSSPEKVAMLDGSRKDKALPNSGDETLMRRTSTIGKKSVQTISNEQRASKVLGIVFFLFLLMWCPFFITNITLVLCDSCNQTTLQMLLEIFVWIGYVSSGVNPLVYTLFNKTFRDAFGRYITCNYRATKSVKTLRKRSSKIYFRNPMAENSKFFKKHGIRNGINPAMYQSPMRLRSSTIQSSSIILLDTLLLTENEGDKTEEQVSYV

| SMILES | pIC50 |
| --- | --- |
| COc1ccc(S(=O)(=O)N[C@H]2CCOC2)cc1C(=O)Nc1ccc(F)cc1F [Compound 65, (S)—N-(2,4-Difluorophenyl)-2-methoxy-5-(N-(tetrahydrofuran-3-yl)sulfamoyl) benzamide] | 9.47 |
| COc1ccc(S(=O)(=O)N[C@H]2CCOC2)cc1C(=O)Nc1ccc(F)cc1Cl [Compound 66, (S)—N-(2-Chloro-4-fluorophenyl)-2-methoxy-5-(N-(tetrahydrofuran-3-yl)sulfamoyl)benzamide] | 9.70 |
| COc1ccc(S(=O)(=O)N[C@H]2CCOC2)cc1C(=O)Nc1cc(F)cc(F)c1 [Compound 67, (S)—N-(3,5-Difluorophenyl)-2-methoxy-5-(N-(tetrahydrofuran-3-yl)sulfamoyl)benzamide] | 8.06 |
| COc1ccc(S(=O)(=O)N[C@H]2CCOC2)cc1C(=O)Nc1cc(F)cc(Cl)c1 [Compound 68, (S)—N-(3-Chloro-5-fluorophenyl)-2-methoxy-5-(N-(tetrahydrofuran-3-yl)sulfamoyl)benzamide] | 8.54 |
| COc1ccc(S(=O)(=O)N[C@H]2CCOC2)cc1C(=O)Nc1cc(F)ccc1F [Compound 69, (S)—N-(2,5-Difluorophenyl)-2-methoxy-5-(N-(tetrahydrofuran-3-yl)sulfamoyl) benzamide] | 8.82 |
| COc1ccc(S(=O)(=O)N[C@H]2CCOC2)cc1C(=O)Nc1cc(F)ccc1Cl [Compound 70, (S)—N-(2-Chloro-5-fluorophenyl)-2-methoxy-5-(N-(tetrahydrofuran-3-yl)sulfamoyl)benzamide] | 9.52 |
| COc1ccc(S(=O)(=O)N[C@H]2CCOC2)cc1C(=O)Nc1cc(Cl)ccc1Cl [Compound 71, (S)—N-(2,5-Dichlorophenyl)-2-methoxy-5-(N-(tetrahydrofuran-3-yl)sulfamoyl)benzamide] | 8.80 |
| COc1ccc(S(=O)(=O)N[C@H]2CCOC2)cc1C(=O)Nc1ccc(Cl)c(Cl)c1 [Compound 72, (S)—N-(3,4-Dichlorophenyl)-2-methoxy-5-(N-(tetrahydrofuran-3-yl)sulfamoyl) benzamide] | 8.29 |
| COc1ccc(S(=O)(=O)N[C@H]2CCOC2)cc1C(=O)Nc1ccc(C#N)cc1F [Compound 73, (S)—N-(4-Cyano-2-fluorophenyl)-2-methoxy-5-(N-(tetrahydrofuran-3-yl)sulfamoyl)benzamide] | 8.26 |
| COc1ccc(S(=O)(=O)N[C@H]2CCOC2)cc1C(=O)Nc1cc(F)c(F)cc1F [Compound 74, (S)-2-Methoxy-5-(N-(tetrahydrofuran-3-yl)sulfamoyl)-N-(2,4,5-trifluorophenyl) benzamide] | 9.10 |
| COc1ccc(S(=O)(=O)N[C@H]2CCOC2)cc1C(=O)Nc1cc(Cl)c(F)cc1F [Compound 75, (S)—N-(5-Chloro-2,4-difluorophenyl)-2-methoxy-5-(N-(tetrahydrofuran-3-yl)sulfamoyl)benzamide] | 8.04 |
| COc1ccc(S(=O)(=O)N[C@H]2CCOC2)cc1C(=O)Nc1c(F)cc(F)cc1F [Compound 76, (S)-2-Methoxy-5-(N-(tetrahydrofuran-3-yl)sulfamoyl)-N-(2,4,6-trifluorophenyl) benzamide] | 8.51 |
| COc1ccc(S(=O)(=O)N[C@H]2CCOC2)cc1C(=O)Nc1ccc(F)c(Cl)c1F [Compound 77, (S)—N-(3-Chloro-2,4-difluorophenyl)-2-methoxy-5-(N-(tetrahydrofuran-3-yl)sulfamoyl)benzamide] | 8.28 |
| COc1ccc(S(=O)(=O)N[C@H]2CCOC2)cc1C(=O)Nc1c(F)cc(F)cc1Cl [Compound 78, (S)—N-(2-Chloro-4,6-difluorophenyl)-2-methoxy-5-(N-(tetrahydrofuran-3-yl)sulfamoyl)benzamide] | 8.62 |
| COc1ccc(S(=O)(=O)N[C@H]2CCOC2)cc1C(=O)Nc1ccn(C)n1 [Compound 79, (S)-2-Methoxy-N-(1-methyl-1H-pyrazol-3-yl)-5-(N-(tetrahydrofuran-3-yl)sulfamoyl)benzamide] | 7.01 |
| COc1ccc(S(=O)(=O)N[C@H]2CCOC2)cc1C(=O)Nc1c(F)cc(C#N)cc1F [Compound 80, (S)—N-(4-cyano-2,6-difluorophenyl)-2-methoxy-5-(N-(tetrahydrofuran-3-yl)sulfamoyl)benzamide] | 6.24 |
| COc1ccc(S(=O)(=O)N[C@H]2CCOC2)cc1C(=O)Nc1c(Cl)cccc1Cl [Compound 81, (S)—N-(2,6-Dichlorophenyl)-2-methoxy-5-(N-(tetrahydrofuran-3-yl)sulfamoyl) benzamide] | 7.49 |
| COc1ccc(S(=O)(=O)N[C@H]2CCOC2)cc1C(=O)Nc1nc(C)cs1 [Compound 82, (S)-2-methoxy-N-(4-methylthiazol-2-yl)-5-(N-(tetrahydrofuran-3-yl)sulfamoyl) benzamide] | 8.96 |
| COc1ccc(S(=O)(=O)N[C@H]2CCOC2)cc1C(=O)Nc1nc(C)c(C)s1 [Compound 83, (S)—N-(4,5-dimethylthiazol-2-yl)-2-methoxy-5-(N-(tetrahydrofuran-3-yl)sulfamoyl)benzamide] | 6.90 |
| COc1ccc(S(=O)(=O)N[C@H]2CCOC2)cc1C(=O)Nc1ncc(C)s1 [Compound 84, (S)-2-methoxy-N-(5-methylthiazol-2-yl)-5-(N-(tetrahydrofuran-3-yl)sulfamoyl) benzamide] | 6.15 |

| SMILES | pIC50 |
| --- | --- |
| COc1ccc(S(=O)(=O)N[C@H]2CCOC2)cc1C(=O)Nc1ccc(Cl)cc1Cl [Compound 85, (S)—N-(2,4-Dichlorophenyl)-2-methoxy-5-(N-(tetrahydrofuran-3-yl)sulfamoyl) benzamide] | 8.82 |
| COc1ccc(S(=O)(=O)N[C@H]2CCOC2)cc1C(=O)Nc1cc(Cl)cc(Cl)c1 [Compound 86, (S)—N-(3,5-Dichlorophenyl)-2-methoxy-5-(N-(tetrahydrofuran-3-yl)sulfamoyl) benzamide] | 8.74 |
| COc1ccc(S(=O)(=O)N[C@H]2CCOC2)cc1C(=O)Nc1cc(F)cc(C#N)c1 [Compound 87, (S)—N-(3-Cyano-5-fluorophenyl)-2-methoxy-5-(N-(tetrahydrofuran-3-yl)sulfamoyl)benzamide] | 7.54 |
| COc1ccc(S(=O)(=O)N[C@H]2CCOC2)cc1C(=O)Nc1ccc(F)c(F)c1F [Compound 88, (S)-2-Methoxy-5-(N-(tetrahydrofuran-3-yl)sulfamoyl)-N-(2,3,4-trifluorophenyl) benzamide] | 7.55 |
| COc1ccc(S(=O)(=O)N[C@H]2CCOC2)cc1C(=O)Nc1ccc(C#N)c(Cl)c1 [Compound 89, (S)—N-(3-Chloro-4-cyanophenyl)-2-methoxy-5-(N-(tetrahydrofuran-3-yl)sulfamoyl)benzamide] | 5.71 |
| COc1ccc(S(=O)(=O)N[C@H]2CCOC2)cc1C(=O)Nc1ccc(C#N)c(F)c1 [Compound 90] | 5.87 |
| COc1ccc(S(=O)(=O)N[C@H]2CCOC2)cc1C(=O)Nc1c(F)cc(Cl)cc1F [Compound 91, (S)—N-(4-Chloro-2,6-difluorophenyl)-2-methoxy-5-(N-(tetrahydrofuran-3-yl)sulfamoyl)benzamide] | 7.04 |
| COc1ccc(S(=O)(=O)N[C@H]2CCOC2)cc1C(=O)Nc1cccc(C#N)c1F [Compound 92, (S)—N-(3-Cyano-2-fluorophenyl)-2-methoxy-5-(N-(tetrahydrofuran-3-yl)sulfamoyl)benzamide] | 6.87 |
| COc1ccc(S(=O)(=O)N[C@H]2CCOC2)cc1C(=O)Nc1c(F)ccc(Cl)c1F [Compound 93, (S)—N-(3-Chloro-2,6-difluorophenyl)-2-methoxy-5-(N-(tetrahydrofuran-3-yl)sulfamoyl)benzamide] | 5.97 |
| COc1ccc(S(=O)(=O)N[C@H]2CCOC2)cc1C(=O)Nc1cc(Cl)cc(C#N)c1 [Compound 94, (S)—N-(3-Chloro-5-cyanophenyl)-2-methoxy-5-(N-(tetrahydrofuran-3-yl)sulfamoyl)benzamide] | 7.92 |
| COc1ccc(S(=O)(=O)N[C@H]2CCOC2)cc1C(=O)Nc1ccc(F)c(C#N)c1 [Compound 95, (S)—N-(3-Cyano-4-fluorophenyl)-2-methoxy-5-(N-(tetrahydrofuran-3-yl)sulfamoyl)benzamide] | 6.19 |
| COc1ccc(S(=O)(=O)N[C@H]2CCOC2)cc1C(=O)Nc1cc(F)cc(F)c1Cl [Compound 96, (S)—N-(2-Chloro-3,5-difluorophenyl)-2-methoxy-5-(N-(tetrahydrofuran-3-yl)sulfamoyl)benzamide] | 7.08 |
| COc1ccc(S(=O)(=O)N[C@H]2CCOC2)cc1C(=O)Nc1cc(F)c(F)c(F)c1 [Compound 97, (S)-2-Methoxy-5-(N-(tetrahydrofuran-3-yl)sulfamoyl)-N-(3,4,5-trifluorophenyl) benzamide] | 6.73 |
| COc1ccc(S(=O)(=O)N[C@H]2CCOC2)cc1C(=O)Nc1cc(F)c(C#N)cc1F [Compound 98, (S)—N-(4-Cyano-2,5-difluorophenyl)-2-methoxy-5-(N-(tetrahydrofuran-3-yl)sulfamoyl)benzamide] | 7.43 |
| COc1ccc(S(=O)(=O)N[C@H]2CCOC2)cc1C(=O)Nc1ccccc1F [Compound 99, (S)—N-(2-Fluorophenyl)-2-methoxy-5-(N-(tetrahydrofuran-3-yl)sulfamoyl) benzamide] | 8.80 |
| COc1ccc(S(=O)(=O)N[C@H]2CCOC2)cc1C(=O)Nc1cccc(F)c1 [Compound 100, (S)—N-(3-Fluorophenyl)-2-methoxy-5-(N-(tetrahydrofuran-3-yl)sulfamoyl) benzamide] | 8.34 |
| COc1ccc(S(=O)(=O)N[C@H]2CCOC2)cc1C(=O)Nc1ccc(C(F)(F)F)cc1 [Compound 101, (S)-2-Methoxy-5-(N-(tetrahydrofuran-3-yl)sulfamoyl)-N-(4-(trifluoromethyl)phenyl)benzamide] | 6.66 |
| COc1ccc(S(=O)(=O)N[C@H]2CCOC2)cc1C(=O)Nc1cccc(C#N)c1 [Compound 102, (S)—N-(3-cyanophenyl)-2-methoxy-5-(N-(tetrahydrofuran-3-yl)sulfamoyl) benzamide] | 6.36 |
| COc1ccc(S(=O)(=O)N[C@H]2CCOC2)cc1C(=O)Nc1c(F)cccc1Cl [Compound 103, (S)—N-(2-Chloro-6-fluorophenyl)-2-methoxy-5-(N-(tetrahydrofuran-3-yl)sulfamoyl)benzamide] | 8.08 |
